Reference: patent US12324832B2, “Application of heptoglycan-chain-containing oligosaccharide compounds in preparation of vaccine against Helicobacter pylori” (Jiangnan University, priority 2020, dated 2025)
“Also recorded” adds a separate entry of the source.

Tested on: serum antibodies generated against the Helicobacter pylori serotype O:6 purified polysaccharide
Assay: Oligosaccharide chip: binding of antiserum antibodies to spotted synthetic oligosaccharides
Parameters: species or system rabbit
Settings: spotting concentration 1 mM; for fluorescence intensity on oligosaccharide chip: FIG. 6A/6B, serum diluted 1:50; for recognition and binding by antibodies in the antiserum: oligosaccharide fixed on chip via amino linker, antiserum against H. pylori serotype O6 LPS, anti-rabbit IgG FITC-labeled secondary antibody
Description: FIG. 6A: Detection of the antibody binding activity of the synthetic oligosaccharides in the oligosaccharide chip using an anti-rabbit IgG FITC-labeled secondary antibody. The chip spotting mode is shown as follows: • 1: trisaccharide 1, spotting concentration is 1 mM; • 2: tetrasaccharide 2, spotting concentration is 1 mM; • 3: heptoglycan-chain-containing pentasaccharide 3, spotting concentration is 1 mM; • 4: heptoglycan-chain-containing pentasaccharide 4, spotting concentration is 1 mM; • 5: […] containing only Lewis O-antigen, spotting concentration is 1 mM; • 6: heptoglycan-chain-containing octasaccharide 6, spotting concentration is 1 mM; • 7: tridecasaccharide 7 containing Lewis O-antigen, spotting concentration is 1 mM; and • 8: Helicobacter pylori serotype O6 lipopolysaccharide, spotting concentration is 1 mg/mL.
FIG. 6B: quantitative measurements of average fluorescence intensity of spots 1-7 in FIG. 6A. Error bars are standard deviations of 4 different points from two different detection areas.
A chemically synthesized oligosaccharide antigen was fixed onto the chip surface through an amino linker, and the antiserum was incubated with the oligosaccharide chip and then incubated with the secondary antibody.
Under a chip scanner, the fluorescence of the binding of the oligosaccharide fragment and the antibody can be obtained. In this way, the binding strength of the oligosaccharide fragment to the antibody in the serum can be quantified, the amount of the chemically synthesized oligosaccharide and antiserum can be saved, and the result can be reflected clearly.
The experimental procedure is as follows: • (1) Activated amino slides were spotted with a biochip spotter. After the completion of the spotting, incubation was carried out overnight at a temperature of 26° C. and a humidity of 55%. • (2) Then the slides were immersed in a solution B (50 nM Na2HPO4, 100 nM ethanolamine in water) at 50° C. for 1 hour. The slides were washed with ultrapure water 3 times, and the residual water was removed by centrifugation. • (3) 3% BSA (w/v) in PBS was used for blocking at 4° C. overnight. The slides were washed with PBST (PBS containing 0.1% tween) once, washed with PBS twice, and centrifugally dried. • (4) The slides were placed into a 16-well incubator (ProPlate). 120 μL of mouse serum sample diluted 1:50 in 1% BSA (w/v) in PBS was added to each well, and incubated in a 37° C. wet box in the dark for 1 hour. The sample was removed, and the incubator was washed with 150 μL of PBST 3 times. • (5) A secondary antibody diluted 1:400 in 1% BSA (w/v) in PBS was added, and incubated in a wet box at 37° C. in the dark for 45 minutes. The secondary antibody solution was removed, and the incubator was washed with 150 μL of PBST 3 times. The 16-well incubator was removed, washed with ultrapure water, and washed with ultrapure water for 15 minutes. The residual water was removed by centrifugation. Scanning was carried out using the chip scanner. Immunogenicity Detection of Helicobacter pylori Serotype O:6 Synthetic Oligosaccharide Fragment:
NHS slides (SurModics, DN01-0025) were spotted with synthetic oligosaccharide compounds 1 to 7 using a biochip spotter (Jiangsu RayMe Biotechnology Co., Ltd.). After the completion of the spotting, incubation was carried out overnight at a temperature of 26° C. and a humidity of 55%. Then the slides were immersed in a solution B (50 nM Na2HPO4, 100 nM ethanolamine in water) at 50° C. for 1 hour. The slides were washed with ultrapure water 3 times, and the residual water was removed by centrifugation. 3% BSA (w/v) in PBS was used for blocking at 4° C. overnight. The slides were washed with PBST (PBS containing 0.1% tween) once, washed with PBS twice, and centrifugally dried. The slides were placed into a 16-well incubator (ProPlate). 120 μL of mouse serum sample diluted 1:50 in 1% BSA (w/v) in PBS was added to each well, and incubated in a 37° C. wet box in the dark for 1 hour. […]

Row | Compound | fluorescence intensity on oligosaccharide chip | recognition and binding by antibodies in the antiserum
1 | NCCCO[C@H]1OC([C@H](O)CO)[C@@H](O)[C@H](O)C1O[C@H]1OC([C@H](O)CO)[C@@H](O)[C@H](O)C1O[C@H]1OC([C@@H](CO)O[C@H]2OC([C@H](O)CO)[C@@H](O)[C@H](O[C@H]3OC([C@H](O)CO)[C@@H](O)C(O)C3O)C2O)[C@@H](O)[C@H](O)C1O (stereo partly drawn) [Compound 3] | higher fluorescence intensity | well recognized; also recorded: obvious and strong recognition and binding
2 | NCCCO[C@H]1OC([C@H](O)CO)[C@@H](O)[C@H](O[C@H]2O[C@@H]([C@H](O)CO)[C@@H](O)C(O[C@H]3OC([C@H](O)CO)[C@@H](O)[C@H](O[C@H]4O[C@@H]([C@H](O)CO)[C@@H](O)C(O[C@H]5OC([C@H](O)CO)[C@@H](O)[C@H](O)C5O)C4O)C3O)C2O)C1O (stereo partly drawn) [Compound 4] | higher fluorescence intensity | well recognized; also recorded: obvious and strong recognition and binding
3 | NCCCO[C@H]1OC([C@H](O)CO)[C@@H](O)[C@H](O)C1O[C@H]1OC([C@H](O)CO)[C@@H](O)[C@H](O)C1O[C@H]1OC([C@@H](CO)O[C@H]2OC([C@H](O)CO)[C@@H](O)[C@H](O[C@H]3O[C@@H]([C@H](O)CO)[C@@H](O)C(O[C@H]4OC([C@H](O)CO)[C@@H](O)[C@H](O[C@H]5O[C@@H]([C@H](O)CO)[C@@H](O)C(O[C@H]6OC([C@H](O)CO)[C@@H](O)[C@H](O)C6O)C5O)C4O)C3O)C2O)[C@@H](O)[C@H](O)C1O (stereo partly drawn) [Compound 6] | higher fluorescence intensity | well recognized; also recorded: obvious and strong recognition and binding
